Values joined by “and” are separate entries in the source; they are usually repeats but may differ in a detail not shown here. Identical values can stand only once.
Tests used:
α1β3γ2L GABAA receptors = target: T1, α1β3γ2L GABAA receptors (UniProt P22723+P28472+P62813); assay: Patch-clamp of recombinant α1β3γ2L GABAAR in HEK293 cells; format: cell-based, rat α1, human β3, mouse γ2L
T1 construct: expressed in transfected cells; host or cells: HEK293
Experimental: (§1) HEK 293 cells were obtained from DSM (Deutsche Sammlung von Mikroorganismen und Zellkulturen GmbH, DSM, Braunschweig). They were grown and maintained according to published standard protocols. Briefly, cells were grown in minimal essential medium supplemented with 10% fetal bovine serum, 100units/ml penicillin and streptomycin and 2 mM L-glutamine and splitted once per week. Semiconfluent cells were transfected on the third day after splitting with the help of Lipofectamine 2000 (Invitrogen), recordings were done 48–72 hrs after transfection.
(§2) The GABAAR subunit cDNAs, generously donated by G.Gisselmann (rat α1, mouse γ2L, rat β1, β2 and human β3 [26]) and J.H. Steinbach (rat α1V256S [28] and rat α1Q241L [44]), were subcloned into pcDNA3 (Invitrogen, Karlsruhe, Germany) and applied in a ratio 1∶1∶1 for the α1βxγ2L receptor and 1∶1 for α1β3 or β3γ2L receptors. […] For each receptor type patch clamp recordings were obtained from at least three separate transfections. Whole-cell patch clamp recordings were done in a similar extracellular solution as for the native cells (see above) except that the concentration of MgCl2 was reduced to 1.2 mM. Intracellular electrodes contained 140 mM CsCl (instead of KCl), pH adjusted with CsOH. The voltage was held at −40 mV.

HDC−/− mice = assay: Polygraphic (EEG/EMG) sleep-wake recording in histamine-deficient mice; format: in vivo, mouse
Experimental: Animal experiments were conducted according to the Animal Protection Law of the Federal Republic of Germany and the local guidelines (Bezirksregierung Duesseldorf) and were in accordance with the European Communities Council directive regarding care and use of animals for experimental procedures (86/609/EEC). The general protocol of sleep-wake recording and experiment in the mouse was approved by the ethic committee of Claude Bernard University of Lyon. All efforts were made to minimize the number of animals and their suffering. At the age of 12 weeks and with a body weight of 30±2 g HDC wild type and knockout mice used for EEG and sleep-wake studies were chronically implanted, under deep gas anesthesia using isoflurane (2%, 200 ml/min) and a TEM anesthesia system (Bordeaux, France), with six cortical electrodes (gold-plated tinned copper wire, Ø = 0.4 mm, Filotex, Draveil, France) and three neck muscle electrodes (fluorocarbon-coated gold-plated stainless steel wire, Ø = 0.03 mm, Cooner Wire Chatworth, CA, U.S.A.) to record the electroencephalogram (EEG) and electromyogram (EMG) and to monitor the sleep-wake cycle. Finally, the electrode assembly was anchored and fixed to the skull with Super-Bond (Sun Medical Co., Shiga, Japan) and dental cement. This implantation allows stable and long-lasting polygraphic recordings.
After surgery, the animals were housed individually in barrels placed in an insulated sound-proof recording room maintained at an ambient temperature of 22±1°C and on a 12 h light/dark cycle (lights-on at 7 a.m.), standard food and water being available ad libitum. After a 7-days recovery period, mice were habituated to the recording cable for 7 days before polygraphic recordings were started. Cortical EEG (contralateral frontoparietal leads) and EMG signals were amplified, digitized with a resolution of 256 and 128 Hz, respectively, and computed on a CED 1401 Plus (Cambridge, UK). Using a Spike2 script and with the assistance of spectral analysis using the fast Fourier transform, polygraphic records were visually scored by 30-sec epochs for wakefulness (W), slow wave sleep (SWS), and paradoxical sleep (PS) according to previously described criteria validated for mice.
Animals were subjected to 12 h sleep-wake recordings following administration of URSOFALK (clinically used UDCA, 32 mg/kg) through the oral route (per os) at 10 a.m. (during the sleepy period) or at 7 p.m. (during the active period). Each animal received twice single dose of UDCA and twice equal volume of vehicle. There was an interval of 7 days between any two administrations. UDCA or vehicle was applied at random. The waking, slow wave sleep or paradoxical sleep amounts were compared between vehicle and UCDA within the same animal, the differences being averaged within the groups. […]

AMPA-receptor = assay: Kainate-evoked AMPA-receptor mediated currents in isolated neurons; format: cell-based
Experimental: Recordings from histaminergic neurons in male Wistar rat (22–26 day old) or 30–60 day old mouse (SV129, histidine decarboxylase deficient HDC−/− or their wild type littermates) hypothalamic slices were performed as previously described. Slices were obtained between 9 and 11 a.m. In the beginning of whole-cell voltage clamp recordings TMN neurons were identified with the help of DIC microscopy and electrophysiological criteria as previously described. Inhibitory postsynaptic currents (IPSCs) were evoked by local stimulation through a bipolar stainless-steel stimulating electrode (50 µm; WPI, UK). The stimulation of axonal endings coming to TMN from ventrolateral preoptic area (VLPO) was done as described in [22]. […] Individual neurons were separated by vibrodissociation after brief preincubation with papain from the hypothalamic slices of mice or rats and identified as TMN neurons according to their size and shape. Identification was confirmed post hoc with the single-cell RT-PCR (all data presented in the manuscript were obtained from histidine decarboxylase-expressing neurons), [40]. TMN neurons from HDC−/− mice were identified by the expression of peripherin [16]. […] Membrane potentials were not corrected for liquid junction potential (5.6 mV, calculated with LJPCalc, Barry, 1994). […]

[1] = design: method as in PMID 11248487; conditions: volunteers (men), single oral dose ∼12 mg/kg; cited from earlier work
native GABAA receptors = assay: GABA-evoked whole-cell currents in acutely isolated TMN neurons (wild type); format: cell-based, mouse
Experimental: Recordings from histaminergic neurons in male Wistar rat (22–26 day old) or 30–60 day old mouse (SV129, histidine decarboxylase deficient HDC−/− or their wild type littermates) hypothalamic slices were performed as previously described. Slices were obtained between 9 and 11 a.m. In the beginning of whole-cell voltage clamp recordings TMN neurons were identified with the help of DIC microscopy and electrophysiological criteria as previously described. Inhibitory postsynaptic currents (IPSCs) were evoked by local stimulation through a bipolar stainless-steel stimulating electrode (50 µm; WPI, UK). The stimulation of axonal endings coming to TMN from ventrolateral preoptic area (VLPO) was done as described in [22]. […] Individual neurons were separated by vibrodissociation after brief preincubation with papain from the hypothalamic slices of mice or rats and identified as TMN neurons according to their size and shape. Identification was confirmed post hoc with the single-cell RT-PCR (all data presented in the manuscript were obtained from histidine decarboxylase-expressing neurons), [40]. TMN neurons from HDC−/− mice were identified by the expression of peripherin [16]. Whole-cell voltage-clamp recordings from isolated neurons were done with an EPC-9 amplifier and TIDA for Windows (HEKA, Lambrecht, Germany) at room temperature. Membrane potentials were not corrected for liquid junction potential (5.6 mV, calculated with LJPCalc, Barry, 1994). The intracellular solution was composed of (in mM) 140 KCl, 2 MgCl2, 0.5 CaCl2, 5 EGTA, 2 ATP and 10 HEPES (pH 7.2 adjusted with NaOH). A fast perfusion technique was used for application of ligands and modulators of fast ionotropic receptors, [41]. […] EC50 is the ligand concentration producing a half-maximal response, [ligand] is ligand concentration, and n is the Hill slope. Hill coefficients were obtained from the slope of the log/log plot of the dose-response curves. […] Steady-state amplitudes of the responses were used for the construction of dose-response plots if not mentioned otherwise.

[2] = target: T2, α1β2γ2L GABAA receptors (WT) (UniProt P22723+P62813+P63138); assay: Patch-clamp of recombinant wild-type α1β2γ2L GABAAR in HEK293 cells; format: cell-based, rat α1, rat β2, mouse γ2L
T2 construct: expressed in transfected cells; host or cells: HEK293
T2 sequence (P62813 28-455): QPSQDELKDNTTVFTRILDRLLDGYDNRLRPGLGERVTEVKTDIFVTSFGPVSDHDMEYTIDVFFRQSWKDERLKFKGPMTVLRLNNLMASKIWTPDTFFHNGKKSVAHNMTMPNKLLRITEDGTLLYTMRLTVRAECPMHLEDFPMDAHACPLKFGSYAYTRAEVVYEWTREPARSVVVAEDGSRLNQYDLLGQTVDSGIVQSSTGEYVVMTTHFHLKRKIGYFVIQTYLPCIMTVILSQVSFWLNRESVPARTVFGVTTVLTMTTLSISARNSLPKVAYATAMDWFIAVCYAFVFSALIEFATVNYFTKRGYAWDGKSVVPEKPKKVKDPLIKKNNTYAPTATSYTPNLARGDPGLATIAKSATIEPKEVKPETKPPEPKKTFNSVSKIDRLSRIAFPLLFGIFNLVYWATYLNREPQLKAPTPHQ
T2 sequence (P63138 25-474 limits assumed): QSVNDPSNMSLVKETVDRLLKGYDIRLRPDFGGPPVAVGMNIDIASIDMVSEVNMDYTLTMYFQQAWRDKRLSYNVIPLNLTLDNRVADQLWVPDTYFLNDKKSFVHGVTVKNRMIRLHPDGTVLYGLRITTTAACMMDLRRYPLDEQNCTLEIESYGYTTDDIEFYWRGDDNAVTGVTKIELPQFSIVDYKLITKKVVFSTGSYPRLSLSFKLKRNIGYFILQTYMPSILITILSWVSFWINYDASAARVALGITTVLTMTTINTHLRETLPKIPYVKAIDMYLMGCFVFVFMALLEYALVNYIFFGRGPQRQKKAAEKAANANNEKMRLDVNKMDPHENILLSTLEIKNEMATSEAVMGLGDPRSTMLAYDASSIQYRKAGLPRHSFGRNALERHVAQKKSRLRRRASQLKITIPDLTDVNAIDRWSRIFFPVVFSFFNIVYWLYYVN
T2 sequence (P22723 39-474): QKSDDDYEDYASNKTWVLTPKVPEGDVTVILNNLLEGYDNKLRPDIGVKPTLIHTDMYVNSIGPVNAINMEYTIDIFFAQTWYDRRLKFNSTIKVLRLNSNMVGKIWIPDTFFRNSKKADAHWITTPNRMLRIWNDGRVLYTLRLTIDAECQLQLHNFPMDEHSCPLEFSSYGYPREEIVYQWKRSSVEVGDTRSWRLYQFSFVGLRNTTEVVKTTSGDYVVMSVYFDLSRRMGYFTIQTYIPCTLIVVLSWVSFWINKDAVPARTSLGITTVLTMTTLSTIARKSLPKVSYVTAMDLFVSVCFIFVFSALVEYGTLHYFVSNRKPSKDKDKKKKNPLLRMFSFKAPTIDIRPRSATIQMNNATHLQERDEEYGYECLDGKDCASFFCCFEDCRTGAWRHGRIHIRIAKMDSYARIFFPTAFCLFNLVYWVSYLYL
Experimental: as §1, §2

[3] = UDCA 32 mg/kg per os at 7 p.m., vs vehicle

T1 sequence (P62813 28-455): as the sequence (P62813 28-455) above
T1 sequence (P28472 26-473): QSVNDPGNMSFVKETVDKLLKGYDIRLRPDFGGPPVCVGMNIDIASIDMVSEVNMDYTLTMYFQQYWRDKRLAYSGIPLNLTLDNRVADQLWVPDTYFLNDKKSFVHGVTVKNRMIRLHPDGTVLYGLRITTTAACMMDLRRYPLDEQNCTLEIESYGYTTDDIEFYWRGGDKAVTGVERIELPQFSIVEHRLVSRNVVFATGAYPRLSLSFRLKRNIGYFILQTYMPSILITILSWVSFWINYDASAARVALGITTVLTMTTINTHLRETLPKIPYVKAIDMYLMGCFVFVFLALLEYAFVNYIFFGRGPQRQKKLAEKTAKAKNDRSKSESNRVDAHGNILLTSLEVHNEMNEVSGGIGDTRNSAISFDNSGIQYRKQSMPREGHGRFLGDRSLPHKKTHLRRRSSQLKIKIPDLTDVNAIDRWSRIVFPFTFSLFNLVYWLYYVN
T1 sequence (P22723 39-474): as the sequence (P22723 39-474) above

C[C@H](CCC(=O)O)[C@H]1CC[C@H]2[C@@H]3[C@@H](O)C[C@@H]4C[C@H](O)CC[C@]4(C)[C@H]3CC[C@]12C [UDCA, ursodeoxycholic acid]
Hill coefficient nH of UDCA block (α1β3γ2L GABAA receptors; maximal GABA): 0.63 | IC50 (α1β3γ2L GABAA receptors; read-out: IC50 of block of GABA-evoked steady-state currents): 73 µM | sleep wake states (HDC−/− mice; 32 mg/kg orally at 10 a.m. (quiet period), n = 7): did not affect | slow wave sleep (SWS) and paradoxical sleep (PS) (HDC−/− mice; [3]): tended to be increased | total sleep (HDC−/− mice; [3]): increased | waking (HDC−/− mice; [3]): significantly decreased | AMPA-receptor mediated currents (AMPA-receptor; 100 µM): did not affect | AMPA-receptor mediated currents (responses to 150 µM of kainate) (AMPA-receptor; up to […]): did not affect | serum peak UDCA concentration [1]: ~18 ± 10 µM | deactivation time constant (τoff) (native GABAA receptors): prolonged | peak current amplitude of maximal GABA-mediated whole-cell currents (native GABAA receptors): not affected | use dependence of block of GABA currents (native GABAA receptors): not use dependent | reversibility of block of GABA currents (native GABAA receptors; GABA 10 µM, 1 s): fully reversible | concentration at which inhibition of GABA-evoked currents and sIPSCs starts (native GABAA receptors; acutely isolated histaminergic neurons): 10 µM | macroscopic apparent desensitization of responses to saturating GABA (native GABAA receptors; decrease of fast decay time constant and steady-state/peak ratio): concentration-dependently enhanced | IC50 (native GABAA receptors; native receptors, steady-state currents, read-out: IC50 of inhibition of GABA-evoked currents): 92 µM | IC50 ([2]; IC50 of inhibition of GABA currents, maximal GABA, WT): 85 µM and 84.7 µM | relative amplitude of maximal GABA-responses ([2]; UDCA 100 µM, n = 7): 47±3 % of control

From publication PMC3412845, “Waking Action of Ursodeoxycholic Acid (UDCA) Involves Histamine and GABAA Receptor Block” (PLoS ONE, 2012)
